Assay results from patent US20060148707A1, “Use of ligands to GABA beta receptors” (priority 1999, published 2006).

Assays:
Format in all cases: in vivo, Wistar rats
NT-3-protein = experiment: NT-3 protein in rat cortex, hippocampus and spinal cord after i.p. treatment (immunoassay); conditions: 4 mg/kg i.p.
Method: (§1) Male adult Wistar rats (10-12 weeks) are killed by decapitation. The brains are removed, rapidly dissected with nuclease-free instruments on an ice-cold metal-plate, transferred to sterile cryotubes, and immediately shock-frozen by immersions in liquid nitrogen. Tissues are stored at −80° C. until further processing. Samples for the measurement of neurotrophin protein levels are prepared according to Lüesse et al., Exp. Brain Res. 1998: 119, 1-8. The homogenates are centrifuged at 12,500 g for 60 min, and the supernatants are used for NGF, BDNF and neurotrophin-3 (NT-3) quantification using specific ELISA assays.
To measure the immunoreactive NGF into the cortex, hippocampus and spinal cord of rats, a two-site ELISA is used (Weskamnp, G. and Otten, U. 1987, J. Neurochem. 48, 1779-1786). Anti-β (2.5S, 7S) NGF and anti-β (2.5S, 7S) NGF-β-gal (clone 27/21) (Boehringer Mannheim) are applied, and the NGF content in the samples is determined by comparison with an NGF standard curve (absorbance measurement at 595 nm using an ELISA reader, Dynatech MR 700). For quantification of BDNF and NT-3 levels, specific immunoassay systems are used according to the manufacturer's (Promega) protocols but modified by Heese, K. and Otten, U., 1998, J. Neurochem. 70, 699-707. Statistical evaluation of results is performed by applying analysis of variance, and the statistical error is the SEM. […]

BDNF mRNA = BDNF mRNA in rat cortex, hippocampus and spinal cord after i.p. treatment (RT-PCR, ratio to S12); conditions: 3 and 10 mg/kg i.p., 6 and 24 hours after treatment
Method: as §1
(§2) Total cellular RNA is isolated according to the TRIZOL®-protocol (Gibco BRL, Eggenstein) as described by Lüesse et al. (see above).
(§3) Before being subjected to RT-PCR, the RNA extracts are supplemented with internal control RNA and optimized as described in detail by Heese K. et al., 1998, Neural Notes III, 21-23. Total RNA of each sample is first reverse-transcribed into cDNA which in turn is subjected to PCR amplification using primers specific for NGF and BDNF as described by Heese K et al., (see above).
(§4) For the quantification of neurotrophin transcripts, the ratios of densitometric scores for NGF or BDNF and S12 PCR products are calculated. Data are means±SEM of three independent experiments, each done in duplicate. N=4 to 6 for each group.

NGF mRNA = NGF mRNA in rat cortex, hippocampus and spinal cord after i.p. treatment (RT-PCR, ratio to S12); conditions: 3 and 10 mg/kg i.p., 6 and 24 hours after treatment
Method: as §1, §2, §3, §4

Compound	increase of NT-3-protein levels (NT-3-protein) [fold]	increase of BDNF mRNA (BDNF mRNA) [fold]	increase of NGF mRNA (NGF mRNA) [fold]
NCC(CC(=O)O)c1ccc(Cl)cc1 (stereo not drawn) [compound C, β-(aminomethyl)-4-chlorobenze propanoic acid]	3	–	–
C[C@H](NC[C@H](O)CP(=O)(O)CC1CCCCC1)c1cccc(C(=O)O)c1 [compound A]	–	2 to 3	2.0 to 2.5
